Results as given in US11464749B2, “Bismuth-thiol compositions and methods of use” (Microbion Corporation, priority 2018, dated 2022).
Converted amounts (≈) assume the structure as drawn. Read-outs that look alike come from different tables or passages of the source.

Key:
[1] = Particle size distribution of BisEDT samples vs processing conditions (Table 111); assay type: physicochemical; conditions: BisEDT sample
Protocol: It was observed that careful control of the reaction temperature and the rate of 1,2 ethanedithiol addition had pronounced impact on the BisEDT particle size distribution.
To a 1-L jacketed reactor was charged USP water (480 mL, 48 vol), followed by 70% HNO3 (34 mL, 3.4 vol). A solution of bismuth subnitrate (10 g, 6.84 mmols) in water (43 mL, 4.3 vol) and 70% HNO3 (14 mL, 1.4 vol) was added at 20° C. The reaction mixture was cooled to 15° C. for addition of 95% Ethanol. The 95% ethanol (180 mL, 18 vol) was then added slowly. (Ethanol addition is exothermic, temperature reached 22° C.). The temperature was then adjusted back to 20° C. […] The reaction was stirred at 20° C. overnight. The reaction mixture was filtered through polypropylene cloth and washed with 95% ethanol (45 mL, 4.5 vol). The wet cake was charged back to the reactor and slurried in 95% ethanol (380 mL, 38 vol) for two hours at 20° C. The suspension was then filtered (same cloth) and washed with 95% ethanol (30 mL, 3 vol). The wet cake was again slurried in 95% EtOH (170 mL, 17 vol) at 20° C., filtered (same cloth), and washed with 95% ethanol (30 mL, 3 vol). The wet cake was then slurried in acetone (170 mL, 17 vol) at 20° C. overnight, followed by filtration (same cloth) and acetone wash (20 mL, 2 vol). The acetone (170 ml, 17 vol) treatment was repeated on the solids and stirred for 2 hours. The suspension was filtered (same cloth) and washed with acetone (30 mL, 3 vol) and died at 45° C. and dried at 45° C. (18 hours) to provide canary yellow solid (10.81 g 91.0%).
Representative synthesis of BisEDT at 15° C. with 1 hour addition of thiol via syringe pump, and polypropylene cloth for filtration: The synthesis BisEDT was performed on 10-g scale, temperature profile was studied with data logger. Ethane dithiol was added at 15° C. over 1 hour via syringe pump and the filtration was performed using PP filter cloth. To a 1-L jacketed reactor was charged USP water (480 mL, 48 vol) and cooled to 15° C., followed by 70% HNO3 (34 mL, 3.4 vol). A solution of bismuth subnitrate (10 g, […]) in water (43 mL, 4.3 vol) and 70% HNO3 (14 mL, 1.4 vol) was added at the same temperature. The 95% ethanol (180 mL, 18 vol) was then added slowly. […] It was then allowed to cool to 15° C. This was followed by dropwise addition of 1,2 ethanedithiol (4.3 mL, […] in 95% ethanol in 94 mL, 9.4 vol) over an hour with the batch temperature at 15° C. The reaction was allowed to stir at 15° C. overnight. The reaction mixture was filtered through polypropylene cloth and washed with 95% ethanol (45 mL, 4.5 vol). The wet cake was charged back to the reactor and slurried in 95% ethanol (380 mL, 38 vol) for two hours at 20° C. The suspension was then filtered (same cloth) and washed with 95% ethanol (30 mL, 3 vol). The wet cake was again slurried in 95% EtOH (170 mL, 17 vol) at 20° C., filtered (same cloth), and washed with 95% ethanol (30 mL, 3 vol). The wet cake was then slurried in acetone (170 mL, 17 vol) at 20° C. overnight, followed by filtration (same cloth) and acetone wash (20 mL, 2 vol). The acetone (170 ml, 17 vol) treatment was repeated on the solids and stirred for 2 hours. The suspension was filtered (same cloth) and washed with acetone (30 mL, 3 vol) and died at 45° C. and dried at 45° C. (18 hours) to provide canary yellow solid (10.43 g 87.8%).

[2] = tested on: vancomycin-intermediate Staphylococcus aureus (VISA); test: Broth microdilution MIC (Example 12)

| Structure (SMILES) | D (10) [1] | D (50) [1] | D (90) [1] | D [4,3] [1] | further results |
| --- | --- | --- | --- | --- | --- |
| C1C[S][Bi]([S]CC[S][Bi]2[S]CC[S]2)[S]1 [Sample 13] | 0.36 μm | 0.98 μm | 2.1 μm | 1.2 μm |  |
| C1C[S][Bi]([S]CC[S][Bi]2[S]CC[S]2)[S]1 [Sample 9] | 0.67 μm | 1.0 μm | 1.9 μm | 1.1 μm |  |
| C1C[S][Bi]([S]CC[S][Bi]2[S]CC[S]2)[S]1 [Sample 15] | 0.32 μm | 0.72 μm | 1.6 μm | 0.86 μm |  |
| C1C[S][Bi]([S]CC[S][Bi]2[S]CC[S]2)[S]1 [Sample 11] | 0.38 μm | 1.2 μm | 2.4 μm | 1.4 μm |  |
| C1C[S][Bi]([S]CC[S][Bi]2[S]CC[S]2)[S]1 [Sample 5] | 0.33 μm | 0.72 μm | 1.6 μm | 0.86 μm |  |
| C1C[S][Bi]([S]CC[S][Bi]2[S]CC[S]2)[S]1 [Sample 2] | 0.58 μm | 1.7 μm | 3.9 μm | 2.0 μm |  |
| C1C[S][Bi]([S]CC[S][Bi]2[S]CC[S]2)[S]1 [Sample 14] | 0.36 μm | 1.0 μm | 2.1 μm | 1.2 μm |  |
| C1C[S][Bi]([S]CC[S][Bi]2[S]CC[S]2)[S]1.SCCS [Sample 3] | 0.59 μm | 1.9 μm | 4.5 μm | 2.3 μm |  |
| CC(=O)NC[C@H]1CN(c2ccc(N3CCOCC3)c(F)c2)C(=O)O1 [LZD] |  |  |  |  | MIC ([2]; S. aureus NRS 1 (hVISA)): 1 µg/mL (≈ 2.96 µM); MIC ([2]; S. aureus NRS 2): 4 µg/mL (≈ 11.9 µM); MIC ([2]; S. aureus NRS 3): 1 µg/mL (≈ 2.96 µM); MIC ([2]; S. aureus NRS 4): 1 µg/mL (≈ 2.96 µM); MIC ([2]; S. aureus NRS 13): 2 µg/mL (≈ 5.93 µM); MIC ([2]; S. aureus NRS 18): 1 µg/mL (≈ 2.96 µM); MIC ([2]; S. aureus NRS 22): 1 µg/mL (≈ 2.96 µM); MIC ([2]; S. aureus NRS 24 (hVISA)): 2 µg/mL (≈ 5.93 µM); MIC ([2]; S. aureus NRS 27): 2 µg/mL (≈ 5.93 µM) |
| C1C[S][Bi]([S]CC[S][Bi]2[S]CC[S]2)[S]1 [Sample 10] | 0.36 μm | 0.88 μm | 1.7 μm | 0.97 μm |  |
| C1C[S][Bi]([S]CC[S][Bi]2[S]CC[S]2)[S]1 [Sample 6] | 0.34 μm | 0.87 μm | 1.8 μm | 0.98 μm |  |
| CCC[C@@H]1C[C@@H](C(=O)N[C@@H]([C@H]2O[C@H](SC)[C@H](O)[C@@H](O)[C@H]2O)[C@H](C)Cl)N(C)C1 [CLI] |  |  |  |  | MIC ([2]; S. aureus NRS 1 (hVISA)): >8 µg/mL; MIC ([2]; S. aureus NRS 2): >8 µg/mL; MIC ([2]; S. aureus NRS 3): >8 µg/mL; MIC ([2]; S. aureus NRS 4): >8 µg/mL; MIC ([2]; S. aureus NRS 13): 0.06 µg/mL (≈ 0.141 µM); MIC ([2]; S. aureus NRS 18): >8 µg/mL; MIC ([2]; S. aureus NRS 22): >8 µg/mL; MIC ([2]; S. aureus NRS 24 (hVISA)): >8 µg/mL; MIC ([2]; S. aureus NRS 27): >8 µg/mL |
| C1C[S][Bi]([S]CC[S][Bi]2[S]CC[S]2)[S]1 [Sample 4] | 0.44 μm | 1.48 μm | 3.1 μm | 1.7 μm |  |
| CC(=O)NC[C@H]1CN(c2ccc(N3CCOCC3)c(F)c2)C(=O)O1 [linezolid, reference compound] |  |  |  |  | MIC ([2]; Staphylococcus aureus, VISA, read-out: MIC values): ≤ 4 µg/mL |
| C1C[S][Bi]([S]CC[S][Bi]2[S]CC[S]2)[S]1 [Sample 8] | 0.36 μm | 1.0 μm | 1.8 μm | 1.0 μm |  |
| C1C[S][Bi]([S]CC[S][Bi]2[S]CC[S]2)[S]1 [Sample 7] | 0.39 μm | 1.3 μm | 1.6 μm | 1.4 μm |  |
| C1C[S][Bi]([S]CC[S][Bi]2[S]CC[S]2)[S]1 [Sample 12] | 0.37 μm | 1.2 μm | 2.4 μm | 1.3 μm |  |
| CCCCCCCCCC(=O)NC(Cc1c[nH]c2ccccc12)C(=O)NC(CC(N)=O)C(=O)NC(CC(=O)O)C(=O)NC1C(=O)NCC(=O)NC(CCCN)C(=O)NC(CC(=O)O)C(=O)NC(C)C(=O)NC(CC(=O)O)C(=O)NCC(=O)NC(CO)C(=O)NC(C(C)CC(=O)O)C(=O)NC(CC(=O)c2ccccc2N)C(=O)OC1C (stereo not shown) [DAP] |  |  |  |  | MIC ([2]; S. aureus NRS 1 (hVISA)): 1 µg/mL (≈ 0.617 µM); MIC ([2]; S. aureus NRS 2): 0.25 µg/mL (≈ 0.154 µM); MIC ([2]; S. aureus NRS 3): 1 µg/mL (≈ 0.617 µM); MIC ([2]; S. aureus NRS 4): 0.5 µg/mL (≈ 0.309 µM); MIC ([2]; S. aureus NRS 13): 2 µg/mL (≈ 1.23 µM); MIC ([2]; S. aureus NRS 18): 0.5 µg/mL (≈ 0.309 µM); MIC ([2]; S. aureus NRS 22): 2 µg/mL (≈ 1.23 µM); MIC ([2]; S. aureus NRS 24 (hVISA)): 0.5 µg/mL (≈ 0.309 µM); MIC ([2]; S. aureus NRS 27): 0.25 µg/mL (≈ 0.154 µM) |
| CN[C@H](CC(C)C)C(=O)N[C@H]1C(=O)N[C@@H](CC(N)=O)C(=O)N[C@H]2C(=O)N[C@H]3C(=O)N[C@H](C(=O)N[C@H](C(=O)O)c4cc(O)cc(O)c4-c4cc3ccc4O)[C@H](O)c3ccc(c(Cl)c3)Oc3cc2cc(c3O[C@@H]2O[C@H](CO)[C@@H](O)[C@H](O)[C@H]2O[C@H]2C[C@](C)(N)[C@H](O)[C@H](C)O2)Oc2ccc(cc2Cl)[C@H]1O [VAN] |  |  |  |  | MIC ([2]; S. aureus NRS 1 (hVISA)): 4 µg/mL (≈ 2.76 µM); MIC ([2]; S. aureus NRS 2): 0.5 µg/mL (≈ 0.345 µM); MIC ([2]; S. aureus NRS 3): 8 µg/mL (≈ 5.52 µM); MIC ([2]; S. aureus NRS 4): 4 µg/mL (≈ 2.76 µM); MIC ([2]; S. aureus NRS 13): 2 µg/mL (≈ 1.38 µM); MIC ([2]; S. aureus NRS 18): 4 µg/mL (≈ 2.76 µM); MIC ([2]; S. aureus NRS 22): 4 µg/mL (≈ 2.76 µM); MIC ([2]; S. aureus NRS 24 (hVISA)): 2 µg/mL (≈ 1.38 µM); MIC ([2]; S. aureus NRS 27): 2 µg/mL (≈ 1.38 µM) |
| C1C[S][Bi]([S]CC[S][Bi]2[S]CC[S]2)[S]1.SCCS [Sample 1] | 0.80 μm | 2.4 μm | 5.9 μm | 2.9 μm |  |
